This is an account of results in patent US20110154724A1, “FATTY ESTER COMPOSITIONS WITH IMPROVED OXIDATIVE STABILITY” (TAMINCO, priority 2008, published 2011).

Data set [1] is described as follows: Rancimat oxidative stability (EN 14112) of biodiesel with additives. The following applies: for Rancimat oxidative stability: untreated 5.1 hours, EN 14112. Type of data set: physicochemical. The text has this: The oxidative stability of biodiesel is an important property thereof and is subjected to criteria which may differ from country to country. In the US, oxidative testing of biodiesel is done according to ASTM 6751-08 whereby the B100 (100% biodiesel) must pass a minimum of three hours oxidative stability as done by the Rancimat test. The European oxidation criteria is a minimum of six hours as per EN 14112. Some commercial biodiesel manufacturers and blenders require even eight hours oxidative stability to ensure that B100 biodiesel stored for prolonged periods of time will be suitable for commerce.
Use was made in this example of a pure soy-biodiesel (methyl ester of soy oil) from a commercial source having a Rancimat oxidative stability (tested in accordance with EN 14112) of 5.1 hours.

Data set [2] is described as follows: Solubility tests of antioxidant package components in alkanolamine / hydroxylamine. Type of data set: physicochemical. As for the experimental part: Additionally, 2 grams of octyldiethanolamine (ODEA) was added to the additive mixture.
For data set [3] the following is noted: 25° C.; cited from earlier work.
Where [4] appears, read: 450 ppm added to B100 soy-biodiesel.

In data set [1] (250 ppm added to a different sample of soy methyl ester), `CCCCN(CCO)CCO` [BDEA, butyldiethanolamine] gave an oxidation stability of 3.5 h. This compound displayed a Rancimat oxidative stability in data set [1] (setting [4]) of 6.1 h.

Turning to `CCCOC(=O)c1cc(O)c(O)c(O)c1` [propyl gallate], the “solubility in OAE” value in data set [2] (0.5 grams 4-HT along with 1 gram propyl gallate into 15 grams OAE) is reported as “completely soluble”.

For the compound `CC1(C)CC(O)CC(C)(C)N1[O]` [4-HT, 4-hydroxy-2,2,6,6-tetramethylpiperidino-1-oxy], the Rancimat oxidative stability in data set [1] (50 ppm added to B100 soy-biodiesel) was found to be 5.5 h.

In the case of `CCCCCCCCN(CCO)CCO` [ODEA, octyldiethanolamine], the “solubility in anhydrous DEHA” value in data set [2] (0.5 grams 4-HT into 7.5 grams anhydrous DEHA, additionally 2 grams ODEA) is “completely soluble”. The Rancimat oxidative stability in data set [1] (setting [4]) came out at 8.3 h.

Consider `CCN(O)CC` [Diethylhydroxylamine, diethylhydroxylamine], for which, in data set [3], the vapor pressure is reported as 32 Torr.
